What follows are molecules tested against T1, Ketohexokinase (Human, UniProt P50053) (assay: Ketohexokinase Assay (KHK Assay)).
T1 sequence (P50053 whole entry): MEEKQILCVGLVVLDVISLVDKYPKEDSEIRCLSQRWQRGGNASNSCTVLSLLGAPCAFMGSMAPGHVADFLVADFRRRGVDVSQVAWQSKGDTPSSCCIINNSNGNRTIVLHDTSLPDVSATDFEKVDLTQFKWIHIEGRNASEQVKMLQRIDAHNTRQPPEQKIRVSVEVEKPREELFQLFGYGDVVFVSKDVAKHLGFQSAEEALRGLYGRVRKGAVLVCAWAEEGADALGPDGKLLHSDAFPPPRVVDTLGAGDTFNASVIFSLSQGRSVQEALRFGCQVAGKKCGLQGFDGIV
Description: a) Kinase Reaction1. preparation of Dilution Buffer containing 50 mM hydroxyethylpiperazine […] (Hepes), 140 mM KCl, 3.5 mM MgCl2, and 0.01% bovine serum albumin (BSA), pH 7.4.2. A working solution of ketohexokinase at 2.5 times concentration was prepared with Dilution Buffer, with 50 nM ketohexokinase and 12.5 mM fructose.3. A working solution of adenosine triphosphate (ATP) at 2.5 times concentration was prepared with Dilution Buffer, with a concentration of 250 μM.4. Each compound was diluted starting at a concentration of 500 μM, 3-fold diluted for 9 concentration points. The final concentration of the compound in the reaction system started from 10 μM and the final concentration of dimethyl sulfoxide (DMSO) was 2%.5. A 96-well plate was prepared as a reaction plate, and was incubated at room temperature for 5 min after adding 6 μL ketohexokinase working solution at 2.5 times concentration to each well and further adding 3 μL compound working solution to each well.6. The first well of each row was a positive control for a compound, i.e. the same volume of the buffer was added to replace the compound […]. The last well was a negative control for the compound, i.e. the same volume of Dilution Buffer was added instead of the compound.7. 6 μL ATP working solution was added to each well in a 96-well reaction plate to initiate the kinase reaction. The kinase reaction was incubated in a constant temperature heater at 28° C. for 1 h.b) ADP-Glo assay1. A384 plate was prepared as a detection plate, and firstly 5 μL ADP-Glo reagent was added.2. 5 μL kinase reaction mixture from the reaction plate was added to each well and incubated in a constant temperature heater at 28° C. for 30 min.3. 10 μL kinase detection reagent was added to each well and incubated in a constant temperature heater at 28° C. for 30 min.4. The detection plate was placed in an EnVision multilabel reader to read the chemiluminescent signal.
For C[C@H]1CCN1c1nc(N2CC3(CC3C(=O)O)C2)c2c(n1)C(F)(F)CC2 (some centres undefined) [US12534477, Compound WX035], the IC50 was 36 nM. Work on C[C@H]1CCN1c1nc(N2CC3(C[C@H]3C(=O)O)C2)c2c(n1)C(F)(F)CC2 [US12534477, Compound WX043] yielded an IC50 of 28 nM. Work on C[C@H]1CCN1c1nc(N2CC3(C[C@@H]3C(=O)O)C2)c2c(n1)C(F)(F)CC2 [US12534477, Compound WX042] yielded an IC50 of 21 nM. C[C@H]1CCN1c1nc(Nc2ccc(C(=O)O)c(C(F)(F)F)c2)c2ccsc2n1 [US12534477, Compound WX013] was tested, and the IC50 was 17 nM.
